Data on 2 molecules can be found in paper PMC9738531, “Cholinesterases Inhibition, Anticancer and Antioxidant Activity of Novel Benzoxazole and Naphthoxazole Analogs” (Molecules, 2022).

T1 sequence (P22303 other isoform, or with tags, fused parts or gaps): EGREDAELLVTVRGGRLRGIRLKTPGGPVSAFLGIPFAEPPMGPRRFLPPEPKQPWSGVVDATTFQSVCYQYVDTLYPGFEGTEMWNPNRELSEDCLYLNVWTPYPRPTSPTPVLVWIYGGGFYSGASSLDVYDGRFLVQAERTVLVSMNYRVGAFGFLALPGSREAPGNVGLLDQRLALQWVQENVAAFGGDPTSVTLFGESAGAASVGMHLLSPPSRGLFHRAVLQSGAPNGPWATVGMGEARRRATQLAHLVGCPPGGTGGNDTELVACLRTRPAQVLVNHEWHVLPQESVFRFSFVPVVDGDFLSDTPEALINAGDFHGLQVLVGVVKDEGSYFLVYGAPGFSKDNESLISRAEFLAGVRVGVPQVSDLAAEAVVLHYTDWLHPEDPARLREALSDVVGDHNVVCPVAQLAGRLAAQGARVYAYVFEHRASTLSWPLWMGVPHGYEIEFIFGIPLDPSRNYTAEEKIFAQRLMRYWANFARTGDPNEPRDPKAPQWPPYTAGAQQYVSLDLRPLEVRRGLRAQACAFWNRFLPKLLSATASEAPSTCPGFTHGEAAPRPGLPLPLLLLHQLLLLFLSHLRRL

One data set concerns the target T1, Acetylcholinesterase (AChE, E.C. 3.1.1.7, from human erythrocytes) (Homo sapiens, UniProt P22303).
T1 construct: Acetylcholinesterase (AChE, E.C. 3.1.1.7, from human erythrocytes); purchased Sigma-Aldrich (Steinheim, Germany); host or cells: human erythrocytes (natural source)
As to the kind of experiment: biochemical. To be noted: IC50 (BChE)/IC50 (AChE). The protocol:
(§1) The compounds were evaluated by an in vitro assay as the AChE and BChE inhibitors. The studies were carried out using the modified Ellman’s method. […] The inhibitory activities against AChE and BChE of the newly-synthesized compounds were determined exactly, according to a previous paper. […] The samples were analysed in triplicate. IC50 values were designated from a dose–response curve obtained by plotting the percentage of inhibition versus the log concentration, using GraphPad Prism 8 software. […] AChE and BChE activity data were compared using the Kruskal–Wallis test at the significance level of 1%.
As to `COC(=O)c1ccc2nc(-c3ccc(O)c(O)c3O)oc2c1` [Compound 7, Methyl 2-(2,3,4-trihydroxyphenyl)-1,3-benzoxazole-6-carboxylate], the “Selectivity for AChE” value was 3.644.
Turning to `COC(=O)c1ccc2nc(-c3ccc(O)cc3O)oc2c1` [Compound 3, Methyl 2-(2,4-dihydroxyphenyl)-1,3-benzoxazole-6-carboxylate], the “Selectivity for AChE” value was 10.017.

The data set is the same for the next values; noted with them: means ± SEM of three independent experiments.
In turn, `COC(=O)c1ccc2nc(-c3ccc(O)c(O)c3O)oc2c1` [Compound 7, Methyl 2-(2,3,4-trihydroxyphenyl)-1,3-benzoxazole-6-carboxylate] gave an IC50 of 0.183 ± 0.031 µM.
Same read-out and setting: the result for `COC(=O)c1ccc2nc(-c3ccc(O)cc3O)oc2c1` [Compound 3, Methyl 2-(2,4-dihydroxyphenyl)-1,3-benzoxazole-6-carboxylate] reads 0.113 ± 0.011 µM.

The target of the next data set is T2, butyrylcholinesterase (BChE, E.C. 3.1.1.8, from equine serum) (Equus caballus, UniProt P81908).
T2 construct: butyrylcholinesterase (BChE, E.C. 3.1.1.8, from equine serum); purchased Sigma-Aldrich (Steinheim, Germany); host or cells: equine serum (natural source)
T2 sequence (P81908 whole entry): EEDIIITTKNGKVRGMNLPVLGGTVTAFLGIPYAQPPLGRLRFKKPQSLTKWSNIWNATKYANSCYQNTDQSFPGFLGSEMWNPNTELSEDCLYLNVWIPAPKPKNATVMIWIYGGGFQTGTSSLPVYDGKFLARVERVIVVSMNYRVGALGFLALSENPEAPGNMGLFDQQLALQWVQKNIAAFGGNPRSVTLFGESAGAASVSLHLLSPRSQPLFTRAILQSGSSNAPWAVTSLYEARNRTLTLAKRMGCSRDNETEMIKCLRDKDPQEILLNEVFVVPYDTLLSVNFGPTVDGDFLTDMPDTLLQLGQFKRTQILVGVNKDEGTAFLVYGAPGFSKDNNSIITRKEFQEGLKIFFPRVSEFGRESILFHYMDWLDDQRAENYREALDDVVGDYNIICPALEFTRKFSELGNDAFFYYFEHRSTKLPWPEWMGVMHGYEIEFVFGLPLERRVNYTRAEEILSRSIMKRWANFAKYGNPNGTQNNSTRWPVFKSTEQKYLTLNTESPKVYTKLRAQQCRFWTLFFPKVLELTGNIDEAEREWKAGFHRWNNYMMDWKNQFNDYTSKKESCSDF
Description: biochemical. To be noted: means ± SEM of three independent experiments. The protocol:
as §1
Regarding `COC(=O)c1ccc2nc(-c3ccc(O)c(O)c3O)oc2c1` [Compound 7, Methyl 2-(2,3,4-trihydroxyphenyl)-1,3-benzoxazole-6-carboxylate], the midpoint of inhibition, the IC50, lay at 0.667 ± 0.004 µM.
Regarding `COC(=O)c1ccc2nc(-c3ccc(O)cc3O)oc2c1` [Compound 3, Methyl 2-(2,4-dihydroxyphenyl)-1,3-benzoxazole-6-carboxylate], the IC50 worked out at 1.13 ± 0.016 µM.

Tested on in the next data set: not listed separately
Description: DPPH free radical scavenging activity. To be noted: concentration scavenging 50% of DPPH radicals; means ± SD of three experiments. As for the experimental part:
To evaluate the antioxidant potential of compounds as radical scavengers versus the stable free radicals, 2,2-diphenylpicrylhydrazyl (DPPH) was applied. Antioxidant properties were expressed as the IC50 value—the concentration of compound required for scavenging 50% of DPPH radicals. […].
The DPPH free radical scavenging activities of the synthesized compounds were measured by DPPH, according to the method described in the paper. The free radical scavenging activity was measured as a decrease in the absorbance of DPPH, and calculated using the equation:DPPH scavenging effects (%) = […] [(A0 − A1)/A0]∙100](2) where: A0 was the absorbance of the control reaction and A1 absorbance in the presence of the sample of the analysed compounds [62]. The IC50 values were calculated as the concentration of compound required for scavenging 50% of DPPH [45]. Results were presented as the mean ± standard deviation (SD). The antioxidant activity data were compared using the one-way ANOVA test at the significance level 5%.
With `COC(=O)c1ccc2nc(-c3ccc(O)c(O)c3O)oc2c1` [Compound 7, Methyl 2-(2,3,4-trihydroxyphenyl)-1,3-benzoxazole-6-carboxylate], the concentration for half-maximal inhibition (IC50) worked out at 0.887 ± 0.064 µM.
On the same count and under the same terms, next, `COC(=O)c1ccc2nc(-c3ccc(O)cc3O)oc2c1` [Compound 3, Methyl 2-(2,4-dihydroxyphenyl)-1,3-benzoxazole-6-carboxylate]: 0.286 ± 0.122 µM.

For another data set, the system named is HCV29T (bladder cancer) cells. As to the kind of experiment: SRB antiproliferative assay, HCV29T. Format: cell-based, human. To be noted: Homo sapiens, HCV29T, 72 h, means ± SD, read-out: IC50 HCV 29T. As for the experimental part:
(§2) The compounds were also evaluated for their antiproliferative potencies against human cancer cell lines as the potential anticancer agents. […]. The results are presented in Table 3 and expressed as IC50 (μM). In that score, the highest potency was shown by the analogs from the naphtho[1,2-d][1,3]oxazole group 8–10, particularly by derivative 10 with a chlorine atom on the benzenediol moiety.
(§3) In the antiproliferative assay in vitro, the following human cell lines were applied: T47D (breast cancer), SW707 (rectal adenocarcinoma), A549 (non-small cell lung carcinoma) from the American Type Culture Collection (Rockville, MD, USA) and HCV29T (bladder cancer) from the Fibiger Institute, Copenhagen, Denmark. Cytotoxicity assay was performed after 72 h exposure of the cultured cells at the concentration ranging from 0.1 to 100 μg/mL of the tested agents. The SRB test measuring the cell proliferation inhibition in the in vitro culture was applied. The cellular material fixed with TCA was stained with 0.4% sulforhodamine B (Chemie GmbH, Steinheim, Germany) dissolved in 1% acetic acid (POCh, Gliwice, Poland) for 30 min.
Regarding `COC(=O)c1ccc2nc(-c3ccc(O)c(O)c3O)oc2c1` [Compound 7, Methyl 2-(2,3,4-trihydroxyphenyl)-1,3-benzoxazole-6-carboxylate], the IC50 was determined as 23.3 ± 4.07 µM.
For the molecule `COC(=O)c1ccc2nc(-c3ccc(O)cc3O)oc2c1` [Compound 3, Methyl 2-(2,4-dihydroxyphenyl)-1,3-benzoxazole-6-carboxylate], the IC50 was 6.43 ± 1.12 µM.

Another data set deals with A549 (non-small cell lung carcinoma) cells. As to the kind of experiment: SRB antiproliferative assay, A549. Format: cell-based, human. To be noted: Homo sapiens, A549, 72 h, means ± SD. The protocol:
as §2, §3
The molecule `COC(=O)c1ccc2nc(-c3ccc(O)cc3O)oc2c1` [Compound 3, Methyl 2-(2,4-dihydroxyphenyl)-1,3-benzoxazole-6-carboxylate] gave an IC50 of 4.28 ± 0.55 µM.

In a further data set the test system is T47D (breast cancer) cells. Description: SRB antiproliferative assay, T47D. Format: cell-based, human. To be noted: Homo sapiens, T47D, 72 h, means ± SD. The protocol:
as §2, §3
The molecule `COC(=O)c1ccc2nc(-c3ccc(O)cc3O)oc2c1` [Compound 3, Methyl 2-(2,4-dihydroxyphenyl)-1,3-benzoxazole-6-carboxylate] gave an IC50 of 3.37 ± 1.52 µM.

For another data set, the system named is SW707 (rectal adenocarcinoma) cells. As to the kind of experiment: SRB antiproliferative assay, SW707. Format: cell-based, human. To be noted: Homo sapiens, SW707, 72 h, means ± SD, read-out: IC50 SW 707. The protocol:
as §2, §3
Turning to `COC(=O)c1ccc2nc(-c3ccc(O)cc3O)oc2c1` [Compound 3, Methyl 2-(2,4-dihydroxyphenyl)-1,3-benzoxazole-6-carboxylate], the IC50 is 5.47 ± 2.16 µM.

Another data set relates to normal mammary gland MCF10A cells. As to the kind of experiment: LDH cytotoxicity assay, MCF10A normal cells. Format: cell-based, human. Particulars: 0.1–10 µM, 72 h. As for the experimental part:
(§4) In view of the observed antiproliferative activity, the influence of the tested compounds on the normal human cells—normal mammary gland epiterial cells of the MCF10A line and the normal keratenocytes HaCaT line—was examined (Figure 5). The cells were treated with compounds 3, 8 and 10 in the concentration range from 0.1 µM to 25 µM for 72 h, after which the cell viability was tested by analysis of the level of released lactate dehydrogenase (LDH method).
(§5) Normal human epithelial cells from the mammary gland, MCF10A (a generous gift from our colleague Dr. Saraswati Sukumar (JHU), who obtained them recently from ATCC), and normal human keratinocytes HaCaT (also obtained from ATCC), were cultured in DMEM/F12 medium (Gibco), supplemented with 5% horse serum (Gibco), 5% FBS (Sigma-Aldrich Chemie GmbH, Taufkirchen, Germany ), penicillin streptomycin solution (1×) (Gibco) at 37 °C and 5% CO2. The cells were subcultured twice a week.
(§6) Human epiterial breast cells MCF10A and human keratinocytes HaCaT (1 × 10^4/mL) cells were placed on 96-well plates (Nunc, Roskilde, Denmark). The next day, the cells were exposed to increasing concentrations of compounds 3, 8 and 10 in 0.1, 0.25, 0.5, 1, 2.5, 5, 10 and 25 μM in fresh culture medium. Cytotoxicity was estimated based on the measurements of cytoplasmic lactate dehydrogenase (LDH) activity released from the damaged cells after the 72 h exposure to the compounds. The LDH assay was performed according to the manufacturer’s instructions (Cytotoxicity Detection KitPLUS LDH, Roche, Mannheim, Germany). Absorbance was measured using a microplate at two different wavelengths: “measurement wavelength” (492 nm) and “reference wavelength” (690 nm), using a microplate.
For `COC(=O)c1ccc2nc(-c3ccc(O)cc3O)oc2c1` [Compound 3, Methyl 2-(2,4-dihydroxyphenyl)-1,3-benzoxazole-6-carboxylate], the “toxicity to normal breast cells (LDH release)” value is listed as “not toxic”.

The same data set, now with this note: 5 and 10 µM, 72 h, vs control.
For `COC(=O)c1ccc2nc(-c3ccc(O)cc3O)oc2c1` [Compound 3, Methyl 2-(2,4-dihydroxyphenyl)-1,3-benzoxazole-6-carboxylate], the “change in lactate dehydrogenase levels” value is “statistically significant reduction”.

A further data set deals with normal keratinocytes HaCaT cells. As to the kind of experiment: LDH cytotoxicity assay, HaCaT normal cells. Particulars: HaCaT, 0.1–10 µM, 72 h. Format: cell-based, human. As for the experimental part: as §4, §5, §6
Turning to `COC(=O)c1ccc2nc(-c3ccc(O)cc3O)oc2c1` [Compound 3, Methyl 2-(2,4-dihydroxyphenyl)-1,3-benzoxazole-6-carboxylate], the “toxicity to keratinocytes (LDH release)” value is recorded as “not toxic”.

Staying with this data set, now noted: HaCaT, 2.5, 5 and 10 µM, 72 h, vs control.
`COC(=O)c1ccc2nc(-c3ccc(O)cc3O)oc2c1` [Compound 3, Methyl 2-(2,4-dihydroxyphenyl)-1,3-benzoxazole-6-carboxylate]: the “change in lactate dehydrogenase levels” value is on record as “statistically significant reduction”.

Tested on in a further data set: not listed separately
Description: Lipophilicity by RP-18 HPLC chromatography. Format: physicochemical. Particulars: MeOH/acetate buffer, pH 7.4. From the text:
The lipophilicity parameter was estimated for the tested compounds as it is an important feature that influences the pharmacokinetic properties of bioactive compounds [46, 47]. Lipophilicity also determines some biological activities, such as the antiproliferative or fungistatic activity. For lipophilicity determination, reversed-phase column chromatography was used, with the octadecyl C-18 stationary phase and MeOH as the organic modifier in the isocratic conditions.
HPLC measurements were performed using a liquid chromatograph (Knauer, Berlin, Germany) with a dual pump and a UV-visible detector. The measurements were made at 254 or 320 nm at room temperature. A Eurosil Bioselect C18 (5 μm, 300 × 4.6 mm) column was applied as the stationary phase. The mobile phase consisted of different volume mixtures of 20 mM acetate buffer as the aqueous phase, and MeOH as the organic modifier (pH 7.4). The different concentrations of MeOH from 0.5 to 0.90 (v/v) range was used, depending on the structure of the compound at 0.05 intervals. The flow rate was 1 mL/min. Retention time of an unretained solute (t0) was determined by the injection of a small amount of acetone dissolved in water.
Regular changes in the retention coefficients of compounds in a function of the organic modifier MeOH content in the mobile phase are described by the Soczewiński–Wachtmeister equation [56]:log k = log kw + S φ(1)
φ—the volume fraction of organic modifier (MeOH) in the mobile phase; log kw—the intercept; S—slope of the regression curve. Log kw refers to the retention parameter of a compound with pure water as the mobile phase.
Regarding `COC(=O)c1ccc2nc(-c3ccc(O)c(O)c3O)oc2c1` [Compound 7, Methyl 2-(2,3,4-trihydroxyphenyl)-1,3-benzoxazole-6-carboxylate], the “-S (slope of log k vs MeOH fraction)” value stood at 4.811.
Still for that read-out and setting: next, `COC(=O)c1ccc2nc(-c3ccc(O)cc3O)oc2c1` [Compound 3, Methyl 2-(2,4-dihydroxyphenyl)-1,3-benzoxazole-6-carboxylate]: 5.325.

Staying with this data set, now noted: pH 7.4, extrapolation to pure water as mobile phase.
As for `COC(=O)c1ccc2nc(-c3ccc(O)c(O)c3O)oc2c1` [Compound 7, Methyl 2-(2,3,4-trihydroxyphenyl)-1,3-benzoxazole-6-carboxylate], the log kw was 2.800.
Still for that read-out and setting: the result for `COC(=O)c1ccc2nc(-c3ccc(O)cc3O)oc2c1` [Compound 3, Methyl 2-(2,4-dihydroxyphenyl)-1,3-benzoxazole-6-carboxylate] reads 2.92.
